Reference: ChEMBL document CHEMBL1159093, “Discovery and optimization of RO-85, a novel drug-like, potent, and selective P2X3 receptor antagonist” (Bioorg Med Chem Lett, 2010)

Legend:
[1] = biological target: Adrenergic receptor alpha-1 (Rattus norvegicus) (UniProt P15823+P23944+P43140); test: Displacement of [3H]prazosin from alpha1 receptor in rat cerebral cortex at 10 uM after 60 mins by scintillation counting; format: tissue-based
[2] = biological target: Beta-1 adrenergic receptor (Homo sapiens) (UniProt P08588); test: Displacement of [3H]RX 821002 from human recombinant beta-1 adrenergic receptor expressed in HEK293 cells at 10 uM after 60 mins by scintillation counting; format: cell-based
[3] = biological target: Beta-2 adrenergic receptor (Homo sapiens) (UniProt P07550); test: Displacement of [3H](-)CGP 12177 from human recombinant beta2 adrenergic receptor expressed in CHO cells at 10 uM after 120 mins by scintillation counting; format: cell-based
[4] = biological target: Cannabinoid receptor 1 (Homo sapiens) (UniProt P21554); test: Displacement of [3H]CP-55940 from human recombinant CB1 receptor expressed in CHO cells at 10 uM after 120 mins by scintillation counting; format: cell-based
[5] = biological target: D(1A) dopamine receptor (Homo sapiens) (UniProt P21728); test: Displacement of [3H]SCH 23390 from human recombinant dopamine D1 receptor expressed in CHO cells at 10 uM after 60 mins by scintillation counting; format: cell-based
[6] = biological target: D(2) dopamine receptor (Homo sapiens) (UniProt P14416); test: Displacement of [3H]methyl-spiperone from human recombinant D2S receptor expressed in HEK293 cells at 10 uM after 60 mins by scintillation counting; format: cell-based
[7] = species: Rattus norvegicus; test: Displacement of [3H]GABA from GABA receptor in rat cerebral cortex at 10 uM after 60 mins by scintillation counting; format: tissue-based
[8] = biological target: Muscarinic acetylcholine receptor M1 (Homo sapiens) (UniProt P11229); test: Displacement of [3H]pirenzepine from human recombinant muscarinic M1 receptor expressed in CHO cells at 10 uM after 60 mins by scintillation counting; format: cell-based
[9] = biological target: Muscarinic acetylcholine receptor M3 (Homo sapiens) (UniProt P20309); test: Displacement of [3H]4-DAMP from human recombinant muscarinic M3 receptor expressed in CHO cells at 10 uM after 60 mins by scintillation counting; format: cell-based
[10] = biological target: Muscarinic acetylcholine receptor M4 (Homo sapiens) (UniProt P08173); test: Displacement of [3H]4-DAMP from human recombinant muscarinic M4 receptor expressed in CHO cells at 10 uM after 60 mins by scintillation counting; format: cell-based
[11] = biological target: Muscarinic acetylcholine receptor M5 (Homo sapiens) (UniProt P08912); test: Displacement of [3H]4-DAMP from human recombinant muscarinic M5 receptor expressed in CHO cells at 10 uM after 60 mins by scintillation counting; format: cell-based
[12] = species: Rattus norvegicus; test: Displacement of [3H]a,b-MeATP from P2X receptor in rat urinary bladder at 10 uM after 120 mins by scintillation counting
[13] = biological target: 5-hydroxytryptamine receptor 2A (Homo sapiens) (UniProt P28223); test: Displacement of [3H]ketanserin from human recombinant 5HT2A receptor expressed in HEK293 cells at 10 uM after 60 mins by scintillation counting; format: cell-based
[14] = biological target: 5-hydroxytryptamine receptor 3A (Homo sapiens) (UniProt P46098); test: Displacement of [3H]BRL43694 from human recombinant 5HT3 receptor expressed in CHO cells at 10 uM after 120 mins by scintillation counting; format: cell-based
[15] = biological target: Type-1 angiotensin II receptor (Homo sapiens) (UniProt P30556); test: Displacement of [125I][Sar1,Ile8]-AT-2 from human recombinant AT1 receptor expressed in HEK293 cells at 10 uM after 120 mins by scintillation counting; format: cell-based
[16] = biological target: Type-2 angiotensin II receptor (Homo sapiens) (UniProt P50052); test: Displacement of [125I]CGP 42112A from human recombinant AT2 receptor expressed in HEK293 cells at 10 uM after 4 hrs by scintillation counting; format: cell-based
[17] = biological target: B2 bradykinin receptor (Homo sapiens) (UniProt P30411); test: Displacement of [3H]bradykinin from human recombinant bradykinin B2 receptor expressed in CHO cells at 10 uM after 60 mins by scintillation counting; format: cell-based
[18] = biological target: Calcitonin gene-related peptide type 1 receptor (Homo sapiens) (UniProt Q16602); test: Displacement of [125I]hCGRPa from human recombinant CGRP receptor expressed in CHO cells at 10 uM after 90 mins by scintillation counting; format: cell-based
[19] = biological target: C-X-C chemokine receptor type 2 (Homo sapiens) (UniProt P25025); test: Displacement of [125I]IL-8 from human recombinant CXCR2 receptor expressed in HEK293 cells at 10 uM after 60 mins by scintillation counting; format: cell-based
[20] = biological target: Glucocorticoid receptor (Homo sapiens) (UniProt P04150); test: Displacement of [3H]dexamethasone from glucocorticoid receptor in human IM9 cells at 10 uM after 6 hrs by scintillation counting; format: cell-based; settings: IM-9
[21] = species: Rattus norvegicus; test: Displacement of [3H]batrachotoxinin from sodium channel site2 in rat cerebral cortex at 10 uM after 60 mins by scintillation counting; format: tissue-based
[22] = biological target: Sodium-dependent noradrenaline transporter (Homo sapiens) (UniProt P23975); test: Displacement of [3H]nisoxetine from human recombinant NET expressed in CHO cells at 10 uM after 120 mins by scintillation counting; format: cell-based
[23] = biological target: Thromboxane A2 receptor (Homo sapiens) (UniProt P21731); test: Displacement of [3H]SQ29548 from human recombinant TP receptor expressed in HEK293 cells at 10 uM after 60 mins by scintillation counting; format: cell-based
[24] = Protein binding in rat plasma; format: ADME, cell-free; settings: read-out: PPB (converted)
[25] = Inhibition of Cytochrome P450 at <15 uM; format: ADME
[26] = biological target: Gastrin/cholecystokinin type B receptor (Homo sapiens) (UniProt P32239); test: Displacement of [125I]CCK-8s from human recombinant CCK2 receptor expressed in CHO cells at 10 uM after 60 mins by scintillation counting; format: cell-based
[27] = biological target: Galanin receptor type 1 (Homo sapiens) (UniProt P47211); test: Displacement of [125I]galanin from human recombinant GAL1 receptor expressed in HEK293 cells at 10 uM after 60 mins by scintillation counting; format: cell-based
[28] = biological target: Melanocortin receptor 4 (Homo sapiens) (UniProt P32245); test: Displacement of [125I]NDP-a-MSH from human recombinant MC4 receptor expressed in CHO cells at 10 uM after 120 mins by scintillation counting; format: cell-based
[29] = biological target: Substance-P receptor (Homo sapiens) (UniProt P25103); test: Displacement of [125I]BH-SP from NK1 receptor in human U-373MG cells at 10 uM after 60 mins by scintillation counting; format: cell-based; settings: U-373MG ATCC
[30] = biological target: Neuropeptide Y receptor type 2 (Homo sapiens) (UniProt P49146); test: Displacement of [125I]peptideYY from neuropeptide Y2 receptor in human KAN-TS cells at 10 uM after 60 mins by scintillation counting; format: cell-based
[31] = biological target: Adenosine receptor A2a (Homo sapiens) (UniProt P29274); test: Displacement of [3H]CGS 21680 from human adenosine A2A receptor expressed in HEK293 cells at 10 uM after 120 mins by scintillation counting
Adenosine receptor A2a (Homo sapiens), sequence (P29274 whole entry, looked up): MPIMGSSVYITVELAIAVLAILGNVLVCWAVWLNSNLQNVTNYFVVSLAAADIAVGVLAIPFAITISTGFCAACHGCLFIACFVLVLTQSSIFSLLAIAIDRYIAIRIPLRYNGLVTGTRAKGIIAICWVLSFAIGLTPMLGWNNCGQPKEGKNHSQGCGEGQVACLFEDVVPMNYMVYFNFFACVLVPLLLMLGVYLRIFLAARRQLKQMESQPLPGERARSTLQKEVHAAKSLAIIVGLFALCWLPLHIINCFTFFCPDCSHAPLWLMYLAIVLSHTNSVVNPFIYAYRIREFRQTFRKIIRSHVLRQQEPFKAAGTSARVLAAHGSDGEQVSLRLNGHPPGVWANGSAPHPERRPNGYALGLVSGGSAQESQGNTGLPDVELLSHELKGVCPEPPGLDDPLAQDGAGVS

Gastrin/cholecystokinin type B receptor (Homo sapiens), sequence (P32239 whole entry): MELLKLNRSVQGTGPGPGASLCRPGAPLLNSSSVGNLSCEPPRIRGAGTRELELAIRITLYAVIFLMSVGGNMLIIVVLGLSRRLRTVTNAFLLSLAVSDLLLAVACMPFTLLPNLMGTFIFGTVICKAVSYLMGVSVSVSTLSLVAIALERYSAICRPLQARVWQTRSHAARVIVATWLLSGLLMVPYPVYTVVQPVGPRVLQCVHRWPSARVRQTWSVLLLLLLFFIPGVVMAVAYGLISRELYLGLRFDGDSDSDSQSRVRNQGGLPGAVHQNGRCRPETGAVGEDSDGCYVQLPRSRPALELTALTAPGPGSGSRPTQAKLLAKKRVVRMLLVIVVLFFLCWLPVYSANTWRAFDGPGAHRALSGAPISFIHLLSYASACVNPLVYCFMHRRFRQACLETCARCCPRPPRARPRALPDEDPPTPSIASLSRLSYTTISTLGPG
Galanin receptor type 1 (Homo sapiens), sequence (P47211 whole entry): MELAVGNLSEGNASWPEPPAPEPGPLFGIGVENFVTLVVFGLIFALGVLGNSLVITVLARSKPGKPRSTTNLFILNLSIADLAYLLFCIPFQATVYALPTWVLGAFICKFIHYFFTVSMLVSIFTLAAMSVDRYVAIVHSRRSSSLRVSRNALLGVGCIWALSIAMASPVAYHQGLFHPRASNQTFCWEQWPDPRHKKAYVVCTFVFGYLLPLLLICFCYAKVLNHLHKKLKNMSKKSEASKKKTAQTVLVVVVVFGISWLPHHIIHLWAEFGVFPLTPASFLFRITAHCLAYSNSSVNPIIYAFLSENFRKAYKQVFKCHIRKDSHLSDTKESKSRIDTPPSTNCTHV
Beta-2 adrenergic receptor (Homo sapiens), sequence (P07550 whole entry, looked up): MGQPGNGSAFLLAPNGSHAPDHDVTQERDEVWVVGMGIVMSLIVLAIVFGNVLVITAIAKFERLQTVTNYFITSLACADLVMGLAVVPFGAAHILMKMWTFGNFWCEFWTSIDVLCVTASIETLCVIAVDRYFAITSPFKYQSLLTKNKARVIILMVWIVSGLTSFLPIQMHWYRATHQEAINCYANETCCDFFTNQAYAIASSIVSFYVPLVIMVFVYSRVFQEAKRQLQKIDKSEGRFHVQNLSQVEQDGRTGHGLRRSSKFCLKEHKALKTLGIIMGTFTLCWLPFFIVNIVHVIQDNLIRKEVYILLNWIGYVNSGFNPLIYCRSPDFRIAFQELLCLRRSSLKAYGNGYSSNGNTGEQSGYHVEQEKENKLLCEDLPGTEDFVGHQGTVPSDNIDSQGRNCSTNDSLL
Glucocorticoid receptor (Homo sapiens), sequence (P04150 whole entry): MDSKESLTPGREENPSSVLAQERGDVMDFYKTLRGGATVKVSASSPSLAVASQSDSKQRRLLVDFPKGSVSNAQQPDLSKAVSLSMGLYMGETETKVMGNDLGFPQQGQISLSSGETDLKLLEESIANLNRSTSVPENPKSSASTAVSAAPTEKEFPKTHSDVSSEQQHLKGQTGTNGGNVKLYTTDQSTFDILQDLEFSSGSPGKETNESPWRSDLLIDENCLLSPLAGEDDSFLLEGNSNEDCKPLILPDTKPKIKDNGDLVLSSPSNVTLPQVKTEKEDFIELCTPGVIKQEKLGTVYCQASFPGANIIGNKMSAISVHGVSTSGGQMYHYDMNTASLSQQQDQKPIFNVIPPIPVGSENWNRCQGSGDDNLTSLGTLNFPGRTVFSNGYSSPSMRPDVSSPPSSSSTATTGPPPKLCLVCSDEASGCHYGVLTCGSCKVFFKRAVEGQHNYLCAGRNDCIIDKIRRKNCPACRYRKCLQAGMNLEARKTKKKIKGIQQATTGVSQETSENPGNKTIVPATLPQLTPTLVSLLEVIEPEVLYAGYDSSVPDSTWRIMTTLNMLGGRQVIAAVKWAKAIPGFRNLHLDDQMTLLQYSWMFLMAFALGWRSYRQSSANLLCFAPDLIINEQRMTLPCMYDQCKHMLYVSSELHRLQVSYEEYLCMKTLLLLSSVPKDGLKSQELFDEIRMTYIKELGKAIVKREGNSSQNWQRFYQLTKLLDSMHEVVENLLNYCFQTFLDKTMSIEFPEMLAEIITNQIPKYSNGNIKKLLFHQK
Thromboxane A2 receptor (Homo sapiens), sequence (P21731 whole entry): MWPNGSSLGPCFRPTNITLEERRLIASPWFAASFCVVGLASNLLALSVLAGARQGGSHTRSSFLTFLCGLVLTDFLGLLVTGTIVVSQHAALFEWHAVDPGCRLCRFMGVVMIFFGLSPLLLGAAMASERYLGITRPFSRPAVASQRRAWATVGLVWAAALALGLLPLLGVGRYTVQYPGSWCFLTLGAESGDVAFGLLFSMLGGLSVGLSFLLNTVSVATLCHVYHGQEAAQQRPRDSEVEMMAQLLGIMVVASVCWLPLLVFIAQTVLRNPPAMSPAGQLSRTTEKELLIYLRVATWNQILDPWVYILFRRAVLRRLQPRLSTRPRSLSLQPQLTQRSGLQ
Muscarinic acetylcholine receptor M4 (Homo sapiens), sequence (P08173 whole entry): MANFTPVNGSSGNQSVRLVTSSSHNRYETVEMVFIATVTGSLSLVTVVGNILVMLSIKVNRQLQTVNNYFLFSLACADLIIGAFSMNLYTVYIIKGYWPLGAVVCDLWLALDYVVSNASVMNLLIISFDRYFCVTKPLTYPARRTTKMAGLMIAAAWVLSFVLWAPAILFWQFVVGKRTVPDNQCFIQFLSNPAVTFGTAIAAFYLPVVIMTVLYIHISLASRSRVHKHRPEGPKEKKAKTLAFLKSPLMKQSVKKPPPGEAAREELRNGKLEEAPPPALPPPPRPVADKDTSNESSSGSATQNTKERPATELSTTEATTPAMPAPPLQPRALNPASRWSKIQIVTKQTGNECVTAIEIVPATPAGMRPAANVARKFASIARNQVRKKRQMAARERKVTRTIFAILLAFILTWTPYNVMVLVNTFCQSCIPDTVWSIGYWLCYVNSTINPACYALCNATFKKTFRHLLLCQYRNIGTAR
Muscarinic acetylcholine receptor M3 (Homo sapiens), sequence (P20309 whole entry, looked up): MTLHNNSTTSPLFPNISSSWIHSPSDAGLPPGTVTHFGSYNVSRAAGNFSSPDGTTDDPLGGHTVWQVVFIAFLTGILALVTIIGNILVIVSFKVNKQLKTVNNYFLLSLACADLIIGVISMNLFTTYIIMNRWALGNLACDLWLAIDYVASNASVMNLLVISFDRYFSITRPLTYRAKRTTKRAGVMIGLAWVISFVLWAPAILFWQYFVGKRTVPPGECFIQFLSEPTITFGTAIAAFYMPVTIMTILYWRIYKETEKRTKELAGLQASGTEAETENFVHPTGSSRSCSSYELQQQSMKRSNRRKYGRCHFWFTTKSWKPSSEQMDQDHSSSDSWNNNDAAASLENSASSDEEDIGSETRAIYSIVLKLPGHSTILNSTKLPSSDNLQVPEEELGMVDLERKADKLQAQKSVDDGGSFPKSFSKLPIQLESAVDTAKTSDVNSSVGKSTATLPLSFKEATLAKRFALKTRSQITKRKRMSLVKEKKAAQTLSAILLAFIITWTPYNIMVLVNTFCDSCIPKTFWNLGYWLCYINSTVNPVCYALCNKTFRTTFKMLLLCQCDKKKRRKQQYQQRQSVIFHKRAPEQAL
Muscarinic acetylcholine receptor M1 (Homo sapiens), sequence (P11229 whole entry): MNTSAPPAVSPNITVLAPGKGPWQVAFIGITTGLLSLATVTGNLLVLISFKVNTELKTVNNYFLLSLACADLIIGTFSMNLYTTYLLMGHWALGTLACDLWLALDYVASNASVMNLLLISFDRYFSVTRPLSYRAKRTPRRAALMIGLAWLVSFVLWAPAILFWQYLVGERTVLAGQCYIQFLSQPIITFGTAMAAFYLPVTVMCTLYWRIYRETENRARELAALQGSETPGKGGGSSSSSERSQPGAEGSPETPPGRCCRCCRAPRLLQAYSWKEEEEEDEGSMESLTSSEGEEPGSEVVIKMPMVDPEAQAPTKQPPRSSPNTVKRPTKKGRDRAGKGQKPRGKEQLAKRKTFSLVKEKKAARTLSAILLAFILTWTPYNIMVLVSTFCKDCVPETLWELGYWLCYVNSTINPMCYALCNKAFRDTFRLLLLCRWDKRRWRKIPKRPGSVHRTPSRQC
Beta-1 adrenergic receptor (Homo sapiens), sequence (P08588 whole entry, looked up): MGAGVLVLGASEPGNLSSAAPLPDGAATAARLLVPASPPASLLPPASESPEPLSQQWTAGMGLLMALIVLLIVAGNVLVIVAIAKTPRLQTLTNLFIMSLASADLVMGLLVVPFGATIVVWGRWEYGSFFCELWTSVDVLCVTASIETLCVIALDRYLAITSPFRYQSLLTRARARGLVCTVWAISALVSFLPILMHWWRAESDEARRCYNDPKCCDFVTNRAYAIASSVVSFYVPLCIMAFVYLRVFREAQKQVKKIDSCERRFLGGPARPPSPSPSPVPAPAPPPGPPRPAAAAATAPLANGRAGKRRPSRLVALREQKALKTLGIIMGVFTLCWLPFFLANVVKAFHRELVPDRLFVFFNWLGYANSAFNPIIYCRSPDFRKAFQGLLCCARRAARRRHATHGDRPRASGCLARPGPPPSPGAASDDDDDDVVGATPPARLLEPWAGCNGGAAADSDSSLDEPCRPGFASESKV

CC(=O)N1CCN(C[C@@H](C)NC(=O)c2cc3c(-c4ccccc4)nn(C)c3s2)CC1
Activity [1]: > 50%
Activity [2]: > 50%
Activity [3]: > 50%
Activity [4]: > 50%
Activity [5]: > 50%
Activity [6]: > 50%
Activity [7]: > 50%
Activity [8]: > 50%
Activity [9]: > 50%
Activity [10]: > 50%
Activity [11]: > 50%
Activity [12]: > 50%
Activity [13]: > 50%
Activity [14]: > 50%
Activity [15]: > 50%
Activity [16]: > 50%
Activity [17]: > 50%
Activity [18]: > 50%
Activity [19]: > 50%
Activity [20]: > 50%
Activity [21]: > 50%
Activity [22]: > 50%
Activity [23]: > 50%
fraction unbound [24]: 0.11
Activity [25]: Not Active
Activity [26]: > 50%
Activity [27]: > 50%
Activity [28]: > 50%
Activity [29]: > 50%
Activity [30]: > 50%
Activity [31]: > 50%
